Laboratory results: US10745382B2 (BRISTOL-MYERS SQUIBB COMPANY, priority 2015, dated 2020)

Biological target: T1, PD-1/PD-L1 (Homo sapiens, UniProt Q9NZQ7)
T1 construct: made in house; host or cells: HEK293T
Test: PD-1/PD-L1 Homogenous Time-Resolved Fluorescence (HTRF) binding assay
Settings: PD-L1-His 10 nM, PD-1-Ig 20 nM; value given as range class; read-out: Range or IC50
Method in brief: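 Detection by europium cryptate anti-Ig plus APC anti-His (1 nM and 20 nM final) with HTRF signal. Buffer was dPBS, 0.1% BSA, 0.05% Tween-20.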

T1 sequence (Q9NZQ7 with tags, fused parts or gaps): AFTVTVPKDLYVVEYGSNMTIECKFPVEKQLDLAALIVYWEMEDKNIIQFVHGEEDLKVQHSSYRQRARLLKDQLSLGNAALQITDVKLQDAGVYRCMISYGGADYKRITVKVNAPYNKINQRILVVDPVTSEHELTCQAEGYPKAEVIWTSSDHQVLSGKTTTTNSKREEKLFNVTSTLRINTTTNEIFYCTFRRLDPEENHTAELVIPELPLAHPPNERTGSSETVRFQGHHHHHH

Compound | IC50 [nM]
Cc1ccc(COc2cc(OCc3cccc(-c4cccc(OCCCN5CC[C@@H](O)C5)c4C)c3C)c(Cl)cc2CNC(CO)(CO)CO)cc1C [Example 4507, (R)-2-((5-chloro-2-((3,4-dimethylbenzyl)oxy)-4-((3′-(3-(3-hydroxypyrrolidin-1-yl)propoxy)-2,2′-dimethyl-[1,1′-biphenyl]-3-yl)methoxy)benzyl)amino)-2-(hydroxymethyl)propane-1,3-diol] | 0.21 to 10
Cc1ccc(COc2cc(OCc3cccc(-c4cccc(OCCCN5CC[C@@H](O)C5)c4C)c3C)c(Cl)cc2CN2CCCC[C@H]2C(=O)O)cc1C [Example 4508, (S)-1-(5-chloro-2-((3,4-dimethylbenzyl)oxy)-4-((3′-(3-((R)-3-hydroxypyrrolidin-1-yl)propoxy)-2,2′-dimethyl-[1,1′-biphenyl]-3-yl)methoxy)benzyl)piperidine-2-carboxylic Acid] | 0.21 to 10
Cc1c(COc2cc(OCc3ccc(F)c(F)c3)c(CNC(CO)CO)cc2Cl)cccc1-c1cccc(OCCCN2CC[C@@H](O)C2)c1C [Example 4509, (R)-2-((5-chloro-2-((3,4-difluorobenzyl)oxy)-4-((3′-(3-(3-hydroxypyrrolidin-1-yl)propoxy)-2,2′-dimethyl-[1,1′-biphenyl]-3-yl)methoxy)benzyl)amino)propane-1,3-diol] | 0.21 to 10
Cc1c(COc2cc(OCc3ccc(F)c(F)c3)c(CNC(C)(CO)CO)cc2Cl)cccc1-c1cccc(OCCCN2CC[C@@H](O)C2)c1C [Example 4510, (R)-2-((5-chloro-2-((3,4-difluorobenzyl)oxy)-4-((3′-(3-(3-hydroxypyrrolidin-1-yl)propoxy)-2,2′-dimethyl-[1,1′-biphenyl]-3-yl)methoxy)benzyl)amino)-2-methylpropane-1,3-diol] | 10 to 100
Cc1c(COc2cc(OCc3ccc(F)c(F)c3)c(CNC(CO)(CO)CO)cc2Cl)cccc1-c1cccc(OCCCN2CC[C@@H](O)C2)c1C [Example 4511, (R)-2-((5-chloro-2-((3,4-difluorobenzyl)oxy)-4-((3′-(3-(3-hydroxypyrrolidin-1-yl)propoxy)-2,2′-dimethyl-[1,1′-biphenyl]-3-yl)methoxy)benzyl)amino)-2-(hydroxymethyl)propane-1,3-diol] | 0.21 to 10
Cc1c(COc2cc(OCc3ccc(F)c(F)c3)c(CN3CCCC[C@H]3C(=O)O)cc2Cl)cccc1-c1cccc(OCCCN2CC[C@@H](O)C2)c1C [Example 4512, (S)-1-(5-chloro-2-((3,4-difluorobenzyl)oxy)-4-((3′-(3-((R)-3-hydroxypyrrolidin-1-yl)propoxy)-2,2′-dimethyl-[1,1′-biphenyl]-3-yl)methoxy)benzyl)piperidine-2-carboxylic Acid] | 0.21 to 10
Cc1cccc(C)c1COc1cc(OCc2cccc(-c3cccc(OCCCN4CC[C@@H](O)C4)c3C)c2C)c(Cl)cc1CNC(C)(CO)CO [Example 4514, (R)-2-((5-chloro-2-((2,6-dimethylbenzyl)oxy)-4-((3′-(3-(3-hydroxypyrrolidin-1-yl)propoxy)-2,2′-dimethyl-[1,1′-biphenyl]-3-yl)methoxy)benzyl)amino)-2-methylpropane-1,3-diol] | 100 to 2000
Cc1cccc(C)c1COc1cc(OCc2cccc(-c3cccc(OCCCN4CC[C@@H](O)C4)c3C)c2C)c(Cl)cc1CN1CCCC[C@H]1C(=O)O [Example 4516, (S)-1-(5-chloro-2-((2,6-dimethylbenzyl)oxy)-4-((3′-(3-((R)-3-hydroxypyrrolidin-1-yl)propoxy)-2,2′-dimethyl-[1,1′-biphenyl]-3-yl)methoxy)benzyl)piperidine-2-carboxylic Acid] | 2010 to 10000
COc1cc(/C=C/c2cccc(-c3cccc(OCCCN4CC[C@@H](O)C4)c3C)c2C)c(Cl)cc1CN1CCCC[C@H]1C(=O)O [Example 4517, (S)-1-(5-chloro-4-((E)-2-(3′-(3-((R)-3-hydroxypyrrolidin-1-yl)propoxy)-2,2′-dimethyl-[1,1′-biphenyl]-3-yl)vinyl)-2-methoxybenzyl)piperidine-2-carboxylic Acid] | 0.21 to 10
COc1cc(CCc2cccc(-c3cccc(OCCCN4CC[C@@H](O)C4)c3C)c2C)c(Cl)cc1CN1CCCC[C@H]1C(=O)O [Example 4518, (S)-1-(5-chloro-4-(2-(3′-(3-((R)-3-hydroxypyrrolidin-1-yl)propoxy)-2,2′-dimethyl-[1,1′-biphenyl]-3-yl)ethyl)-2-methoxybenzyl)piperidine-2-carboxylic Acid] | 0.21 to 10
COc1cc(NC(=O)c2cccc(-c3cccc(OCCCN4CC[C@@H](O)C4)c3C)c2C)c(Cl)cc1C(=O)N1CCCC[C@H]1C(=O)O [Example 4519, (S)-1-(5-chloro-4-(3′-(3-((R)-3-hydroxypyrrolidin-1-yl)propoxy)-2,2′-dimethyl-[1,1′-biphenyl]-3-ylcarboxamido)-2-methoxybenzoyl)piperidine-2-carboxylic Acid] | 100 to 2000
Cc1c(COc2cc(OCc3cc(F)cc(F)c3)c(CNC(C)(CO)CO)cc2Cl)cccc1-c1cccc(OCCCN2CC[C@@H](O)C2)c1C [Example 4520, (R)-2-((5-chloro-2-((3,5-difluorobenzyl)oxy)-4-((3′-(3-(3-hydroxypyrrolidin-1-yl)propoxy)-2,2′-dimethyl-[1,1′-biphenyl]-3-yl)methoxy)benzyl)amino)-2-methylpropane-1,3-diol] | 0.21 to 10
Cc1c(COc2cc(OCc3cc(F)cc(F)c3)c(CN3CCCC[C@H]3C(=O)O)cc2Cl)cccc1-c1cccc(OCCCN2CC[C@@H](O)C2)c1C [Example 4521, (S)-1-(5-chloro-2-((3,5-difluorobenzyl)oxy)-4-((3′-(3-((R)-3-hydroxypyrrolidin-1-yl)propoxy)-2,2′-dimethyl-[1,1′-biphenyl]-3-yl)methoxy)benzyl)piperidine-2-carboxylic Acid] | 0.21 to 10
Cc1c(COc2cc(OCc3cc(F)cc(F)c3)c(CO)cc2Cl)cccc1-c1cccc(OCCCN2CC[C@@H](O)C2)c1C [Example 4522, (R)-1-(3-((3′-((2-chloro-5-((3,5-difluorobenzyl)oxy)-4-(hydroxymethyl)phenoxy)methyl)-2,2′-dimethyl-[1,1′-biphenyl]-3-yl)oxy)propyl)pyrrolidin-3-ol] | 10 to 100
Cc1cc(OCc2cccc(-c3cccc(OCCCN4CC[C@@H](O)C4)c3C)c2C)c(Cl)cc1CN1CCCC[C@H]1C(=O)O [Example 4523, (S)-1-(5-chloro-4-((3′-(3-((R)-3-hydroxypyrrolidin-1-yl)propoxy)-2,2′-dimethyl-[1,1′-biphenyl]-3-yl)methoxy)-2-methylbenzyl)piperidine-2-carboxylic Acid] | 0.21 to 10
Cc1c(COc2ccc(CN3CCCC[C@H]3C(=O)O)c(C)c2Cl)cccc1-c1cccc(OCCCN2CC[C@@H](O)C2)c1C [Example 4524, (S)-1-(3-chloro-4-((3′-(3-((R)-3-hydroxypyrrolidin-1-yl)propoxy)-2,2′-dimethyl-[1,1′-biphenyl]-3-yl)methoxy)-2-methylbenzyl)piperidine-2-carboxylic Acid] | 10 to 100
tert-butyl (S)-3-(((3′-((2-chloro-5-((5-cyanopyridin-3-yl)methoxy)-4-(((1,3-dihydroxypropan-2-yl)amino)methyl)phenoxy)methyl)-2,2′-dimethyl-[1,1′-biphenyl]-3-yl)oxy)methyl)pyrrolidine-1-carboxylate [Example 2322] | 10 to 100
